For two compounds, IC50 results are on record in patent US20240199571A1, “THIOPHENE COMPOUND AND APPLICATION THEREOF” (MEDSHINE DISCOVERY INC., priority 2021, published 2024).

The IC50 is the point on the concentration scale where inhibition reaches its midpoint. Low values mean higher potency, high ones lower potency.

Structures are written as SMILES. Where a name gives a salt, the structure may show the parent alone.

For this assay, the target named is hERG potassium ion channels (Homo sapiens (Human), UniProt Q12809). Kind of assay: Experiment 4: hERG potassium ion channel inhibition, automated patch clamp (Qpatch), CHO-hERG cells. The format is cell-based. Conditions: highest test concentration 40 μM. As for the experimental part: Experiment 4: hERG Potassium Ion Channel Inhibition Assay
Experimental purpose: To test the effects of the test examples on hERG potassium ion channels using an automated patch clamp method.
4.1.1 CHO-hERG cells were cultured in a 175 cm^2 culture flask. When the cell density grew from 60% to 80%, the culture medium was removed. The cells were washed once with 7 mL of PBS (Phosphate Buffered Saline), and then 3 mL of Detachin cell dissociation reagent was added thereto for digestion.
4.1.2 After the digestion was completed, 7 mL of culture medium was added thereto for neutralization, then the mixture was centrifuged, the supernatant was aspirated, and then 5 mL of culture medium was added thereto for resuspension to ensure a cell density of 2×10^6/mL to 5×10^6/ML.
The single-cell high-resistance sealing and whole-cell modeling formation processes were all automatically completed by the Qpatch instrument of the Shanghai Institute of Materia Medica, Chinese Academy of Sciences. After obtaining the whole-cell recording modeling, the cells were clamped at −80 mV, and before a 5-second +40 mV depolarizing stimulus was given, a 50-millisecond −50 mV prepulse was first given, then the voltage was repolarized to −50 mV and holden for 5 seconds, and finally returned to −80 mV. This voltage stimulus was applied every 15 seconds, recorded for 2 minutes, and then the extracellular fluid was recorded for 5 minutes, and then the administration process was initiated, with compound concentrations starting at the lowest test concentration. The voltage stimulus was given for 2.5 minutes for each test concentration, and after all concentrations had been continuously given, 3 μM the positive control compound, Cisapride, was given. At least 3 cells were tested per concentration (n≥3).
4.4.1 The compound stock solution was diluted with DMSO, and 20 μL of DMSO solution was added with 10 μL of the compound stock solution, and serially diluted 3-fold to 6 DMSO concentrations.
4.4.2 4 μL of 6 DMSO concentrations of compounds were taken respectively and added to 396 μL of extracellular fluid, and the mixture was diluted 100-fold to 6 intermediate concentrations, then 80 μL of 6 intermediate concentrations of compounds was taken and added to 320 μL of extracellular fluid, and the mixture was diluted 5-fold to the final test concentration.
4.4.3 The highest test concentration was 40 μM, and the concentrations were respectively 40, 13.3, 4.4, 1.48, 0.494, and 0.165 μM for a total of six concentrations.
4.4.5 The preparation of the compound was completed by the Bravo instrument throughout the dilution process.
Experimental data were analyzed by GraphPad Prism 5.0 software.
In general terms: Block of hERG is tested as a sign of cardiac risk.

Chain of hERG potassium ion channels (Q12809 whole entry): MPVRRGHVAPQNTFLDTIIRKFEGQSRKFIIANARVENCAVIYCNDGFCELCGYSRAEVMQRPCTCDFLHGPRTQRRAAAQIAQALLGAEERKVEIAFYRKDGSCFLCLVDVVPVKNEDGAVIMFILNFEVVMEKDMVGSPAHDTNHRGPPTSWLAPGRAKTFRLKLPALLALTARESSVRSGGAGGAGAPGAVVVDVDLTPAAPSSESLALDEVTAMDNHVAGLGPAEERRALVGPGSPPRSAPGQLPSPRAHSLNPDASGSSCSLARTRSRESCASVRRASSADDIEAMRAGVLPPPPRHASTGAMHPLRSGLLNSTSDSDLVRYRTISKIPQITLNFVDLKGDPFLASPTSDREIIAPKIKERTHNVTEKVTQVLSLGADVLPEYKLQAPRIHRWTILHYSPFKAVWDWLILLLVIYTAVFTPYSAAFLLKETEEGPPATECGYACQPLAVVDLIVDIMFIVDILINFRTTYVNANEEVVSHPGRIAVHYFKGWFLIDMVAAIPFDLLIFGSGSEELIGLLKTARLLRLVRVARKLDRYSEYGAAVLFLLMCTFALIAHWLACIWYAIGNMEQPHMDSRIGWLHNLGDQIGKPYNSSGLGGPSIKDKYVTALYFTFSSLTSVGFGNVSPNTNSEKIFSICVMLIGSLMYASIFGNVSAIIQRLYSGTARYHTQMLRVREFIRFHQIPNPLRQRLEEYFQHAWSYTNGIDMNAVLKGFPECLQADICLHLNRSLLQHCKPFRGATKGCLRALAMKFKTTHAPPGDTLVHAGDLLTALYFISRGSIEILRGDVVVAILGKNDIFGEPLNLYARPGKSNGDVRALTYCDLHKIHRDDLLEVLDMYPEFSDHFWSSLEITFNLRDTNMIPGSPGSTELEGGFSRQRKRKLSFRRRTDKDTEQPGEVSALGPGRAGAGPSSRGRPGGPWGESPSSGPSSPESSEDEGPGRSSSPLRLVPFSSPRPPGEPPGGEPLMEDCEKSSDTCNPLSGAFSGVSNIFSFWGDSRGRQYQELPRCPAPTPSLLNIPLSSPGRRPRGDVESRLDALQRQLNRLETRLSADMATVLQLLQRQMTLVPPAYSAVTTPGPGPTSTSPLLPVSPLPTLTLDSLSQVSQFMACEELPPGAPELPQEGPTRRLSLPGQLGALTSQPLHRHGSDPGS

`CC(C)(CO)n1cc2cc(-c3sc(C(=O)N4CCC[C@@H](N)C4)cc3-c3ccc(C#N)c(F)c3)ccc2n1` [Hydrochloride of compound 87] displayed a half-maximal inhibitory concentration (IC50) of 13.4 µM.
With `CN[C@@H]1CCCN(C(=O)c2cc(-c3ccc(C#N)c(F)c3)c(-c3cc4nnn(CC(C)(C)O)c4c(F)c3F)s2)C1` [Hydrochloride of compound 98], the IC50 is 18.6 µM.
